What was measured:
[1] = target: T1, A1 adenosine GPCR (Homo sapiens, UniProt P30542); assay: Radioligand binding assay, A1 receptor (transfected CHO cells); conditions: antagonist 1 μM
T1 construct: host or cells: CHO cells
Method: (§1) Binding assays were conducted to evaluate the affinity of test compounds IEM-1460 and IEM-1925 (Eurofins Scientific, Inc.) for 15 targets: the human alpha-1 adrenergic (A1) receptor, histaminergic (H)-2 and−3 receptors, and muscarinic acetylcholine receptors-1 to−5 in transfected CHO cells by radioligand binding. The neuronal α4β2 and neuronal α7 cholinergic acetylcholine receptors were tested in transfected SH-SY5Y cells. The histaminergic-1 and−4 receptors were tested in transfected HEK-293 cells. Ion channel testing for AMPA and N-methyl-D-aspartate (NMDA) was performed in cells from the rat cerebral cortex. […] Non-specific binding was determined in the presence of 1 μM of DCPX. […] The filters were dried and then counted for radioactivity in a scintillation counter (Topcount, Packard) using a scintillation cocktail (Microscint 0, Packard). The results are expressed as a percent inhibition of the control radioligand specific binding: 100-[(measured specific binding)/(control specific binding) × 100]. […]
(§2) We tested the metabolic stability of the compounds with in vitro liver microsome stability assays (Table 1, right). […] We evaluated the compounds for potential toxicity with assays that test for inhibition of off-target ion channels and receptors. […]

[2] = target: T2, nAChR alpha4/beta2 (Homo sapiens, UniProt P17787+P43681); assay: Radioligand binding assay, neuronal α4β2 nicotinic receptor (transfected SH-SY5Y cells); conditions: antagonist 1 μM
T2 construct: host or cells: SH-SY5Y cells
T2 sequence (P43681 29-627 limits assumed): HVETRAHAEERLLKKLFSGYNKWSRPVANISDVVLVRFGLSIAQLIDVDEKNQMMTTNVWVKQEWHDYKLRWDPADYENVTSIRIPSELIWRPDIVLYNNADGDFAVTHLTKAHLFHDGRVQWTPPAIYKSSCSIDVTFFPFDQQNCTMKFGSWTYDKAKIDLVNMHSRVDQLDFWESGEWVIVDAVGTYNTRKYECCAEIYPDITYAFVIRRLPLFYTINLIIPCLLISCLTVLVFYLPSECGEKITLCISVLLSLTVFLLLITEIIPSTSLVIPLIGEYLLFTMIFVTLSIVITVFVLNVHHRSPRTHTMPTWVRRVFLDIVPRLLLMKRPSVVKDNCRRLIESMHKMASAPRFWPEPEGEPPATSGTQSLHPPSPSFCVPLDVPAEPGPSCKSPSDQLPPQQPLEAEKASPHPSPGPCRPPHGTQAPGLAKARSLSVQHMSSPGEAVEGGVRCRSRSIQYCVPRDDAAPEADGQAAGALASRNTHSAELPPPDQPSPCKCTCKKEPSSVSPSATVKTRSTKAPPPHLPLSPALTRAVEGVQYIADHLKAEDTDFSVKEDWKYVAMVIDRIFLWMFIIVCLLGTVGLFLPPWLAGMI
T2 sequence (P17787 26-502): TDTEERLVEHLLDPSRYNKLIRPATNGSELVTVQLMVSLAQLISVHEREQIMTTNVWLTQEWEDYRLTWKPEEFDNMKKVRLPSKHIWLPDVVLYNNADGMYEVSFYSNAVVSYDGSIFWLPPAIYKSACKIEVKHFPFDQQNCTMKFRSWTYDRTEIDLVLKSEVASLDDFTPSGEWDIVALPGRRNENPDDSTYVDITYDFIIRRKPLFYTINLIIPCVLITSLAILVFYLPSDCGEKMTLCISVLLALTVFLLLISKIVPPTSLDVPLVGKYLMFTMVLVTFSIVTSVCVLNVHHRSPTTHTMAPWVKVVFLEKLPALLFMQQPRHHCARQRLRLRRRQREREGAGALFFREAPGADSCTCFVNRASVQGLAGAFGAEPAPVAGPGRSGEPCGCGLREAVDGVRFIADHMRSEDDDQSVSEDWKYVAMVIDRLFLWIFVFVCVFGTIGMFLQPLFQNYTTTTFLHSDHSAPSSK
Method: as §1, §2

[3] = target: T3, H1 histamine GPCR (Homo sapiens, UniProt P35367); assay: Radioligand binding assay, H1 receptor (transfected HEK-293 cells); conditions: antagonist 1 μM
T3 construct: host or cells: HEK-293 cells
T3 sequence (P35367 whole entry): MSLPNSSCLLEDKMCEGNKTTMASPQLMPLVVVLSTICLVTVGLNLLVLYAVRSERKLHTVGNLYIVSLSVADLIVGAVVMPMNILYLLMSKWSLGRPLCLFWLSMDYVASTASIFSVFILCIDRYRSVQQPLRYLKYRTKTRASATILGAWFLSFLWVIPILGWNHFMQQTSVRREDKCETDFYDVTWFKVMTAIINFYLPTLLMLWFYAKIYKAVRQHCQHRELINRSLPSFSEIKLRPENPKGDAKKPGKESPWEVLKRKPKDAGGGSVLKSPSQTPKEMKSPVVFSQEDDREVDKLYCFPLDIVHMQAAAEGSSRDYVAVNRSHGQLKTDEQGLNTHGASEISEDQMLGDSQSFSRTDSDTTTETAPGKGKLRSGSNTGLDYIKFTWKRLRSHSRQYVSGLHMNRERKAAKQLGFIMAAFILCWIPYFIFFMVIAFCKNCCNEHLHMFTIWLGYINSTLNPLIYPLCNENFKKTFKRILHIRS
Method: as §1, §2

[4] = target: T4, hERG potassium channel (Kv 11.1) (Homo sapiens, UniProt Q12809); assay: Radioligand binding assay, hERG potassium channel; conditions: antagonist 1 μM, read-out: Mean% inhibition (N = 2) of radioligand binding
T4 construct: Eurofins Scientific, Inc
T4 sequence (Q12809 whole entry): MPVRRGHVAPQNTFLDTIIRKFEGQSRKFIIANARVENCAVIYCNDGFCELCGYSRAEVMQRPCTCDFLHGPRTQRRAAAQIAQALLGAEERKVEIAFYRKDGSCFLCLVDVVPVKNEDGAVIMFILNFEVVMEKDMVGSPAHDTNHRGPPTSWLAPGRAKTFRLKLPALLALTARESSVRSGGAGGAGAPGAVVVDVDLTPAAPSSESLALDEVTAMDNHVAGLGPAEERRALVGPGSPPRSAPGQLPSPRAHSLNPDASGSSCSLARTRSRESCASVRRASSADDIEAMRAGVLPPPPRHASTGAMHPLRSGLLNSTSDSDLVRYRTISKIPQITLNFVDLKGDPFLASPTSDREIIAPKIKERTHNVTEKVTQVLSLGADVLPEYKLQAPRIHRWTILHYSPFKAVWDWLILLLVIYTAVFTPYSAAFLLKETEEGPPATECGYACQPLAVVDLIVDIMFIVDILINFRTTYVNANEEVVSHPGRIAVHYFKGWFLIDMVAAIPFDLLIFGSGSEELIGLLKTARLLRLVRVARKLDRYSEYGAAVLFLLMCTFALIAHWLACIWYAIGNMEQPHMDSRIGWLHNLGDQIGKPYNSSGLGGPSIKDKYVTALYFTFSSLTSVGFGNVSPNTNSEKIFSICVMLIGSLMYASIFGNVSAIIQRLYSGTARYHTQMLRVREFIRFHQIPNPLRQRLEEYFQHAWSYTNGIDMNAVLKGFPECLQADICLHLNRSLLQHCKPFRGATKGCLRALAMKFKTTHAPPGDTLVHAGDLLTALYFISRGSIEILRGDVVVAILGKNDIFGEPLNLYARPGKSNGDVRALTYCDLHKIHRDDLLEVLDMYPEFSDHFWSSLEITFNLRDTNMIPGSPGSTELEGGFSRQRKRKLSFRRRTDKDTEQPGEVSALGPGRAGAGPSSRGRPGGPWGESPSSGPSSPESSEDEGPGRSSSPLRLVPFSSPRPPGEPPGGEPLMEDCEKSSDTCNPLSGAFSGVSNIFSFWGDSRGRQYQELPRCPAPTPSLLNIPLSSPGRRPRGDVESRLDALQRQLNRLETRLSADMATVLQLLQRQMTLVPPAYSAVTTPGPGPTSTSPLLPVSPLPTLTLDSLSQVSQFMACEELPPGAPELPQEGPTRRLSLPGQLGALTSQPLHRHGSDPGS
Method: as §1, §2

[5] = target: T5, H3 histamine GPCR (Homo sapiens, UniProt Q9Y5N1); assay: Radioligand binding assay, H3 receptor (transfected CHO cells); conditions: antagonist 1 μM
T5 construct: host or cells: CHO cells
T5 sequence (Q9Y5N1 whole entry): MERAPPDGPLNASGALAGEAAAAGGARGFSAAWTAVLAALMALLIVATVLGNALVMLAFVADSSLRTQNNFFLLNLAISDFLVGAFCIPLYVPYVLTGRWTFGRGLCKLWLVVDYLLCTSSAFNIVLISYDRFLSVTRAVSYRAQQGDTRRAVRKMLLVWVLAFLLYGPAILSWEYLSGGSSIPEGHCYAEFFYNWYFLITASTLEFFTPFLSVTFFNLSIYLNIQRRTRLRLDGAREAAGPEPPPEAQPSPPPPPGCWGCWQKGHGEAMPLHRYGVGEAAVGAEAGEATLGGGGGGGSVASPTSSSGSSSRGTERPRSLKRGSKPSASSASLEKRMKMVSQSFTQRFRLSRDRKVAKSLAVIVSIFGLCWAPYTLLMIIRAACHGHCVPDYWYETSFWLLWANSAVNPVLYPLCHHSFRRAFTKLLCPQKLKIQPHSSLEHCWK
Method: as §1, §2

[6] = Metabolic stability in vitro as summarised in the abstract (species not given); assay type: in vitro ADME; conditions: mouse, guinea pig, human, liver microsomes, pH 7.4
Method: (§3) The stability of IEM-1460 in the presence of guinea pig liver microsomes (BioIVT, PN: X008070) or IEM-1925 in the presence of human (BioIVT, PN: M00101), mouse, or guinea pig liver microsomes was evaluated (Paraza Pharma, Inc., Montreal, Quebec, Canada). Both IEM-1925 and IEM-1460 were incubated with microsomes at 37°C for a total of 45 min. Working solutions were prepared in 100 mM potassium phosphate buffer and the final reaction was performed at pH 7.4 in 100 mM potassium phosphate buffer containing 0.5 mg/mL liver microsomal protein. Phase I metabolism was assessed by adding NADPH to a final concentration of 1 mM and collecting samples at time points 0, 5, 15, 30, and 45 min. All collected samples were quenched 1:1 with ice-cold stop solution (1 μM labetalol and 1 μM glyburide in acetonitrile) and centrifuged to remove precipitated protein. […] Samples were analyzed by LC-MS/MS using a Thermo Vanquish UPLC and a Thermo Quantis triple quadrupole mass spectrometer. […] Reference compounds were also assessed to ensure accuracy and precision of experimental protocol: imipramine and verapamil for human liver microsomes, diphenhydramine and verapamil for mouse liver microsomes, and warfarin and verapamil for guinea pig liver microsomes. […] Half-life was determined from a plot of the natural logarithm of the peak area ratio (remaining compound peak area/internal standard peak area) against time.

[7] = target: T6, H4 histamine GPCR (Homo sapiens, UniProt Q9H3N8); assay: Radioligand binding assay, H4 receptor (transfected HEK-293 cells); conditions: antagonist 1 μM
T6 construct: host or cells: HEK-293 cells
T6 sequence (Q9H3N8 whole entry): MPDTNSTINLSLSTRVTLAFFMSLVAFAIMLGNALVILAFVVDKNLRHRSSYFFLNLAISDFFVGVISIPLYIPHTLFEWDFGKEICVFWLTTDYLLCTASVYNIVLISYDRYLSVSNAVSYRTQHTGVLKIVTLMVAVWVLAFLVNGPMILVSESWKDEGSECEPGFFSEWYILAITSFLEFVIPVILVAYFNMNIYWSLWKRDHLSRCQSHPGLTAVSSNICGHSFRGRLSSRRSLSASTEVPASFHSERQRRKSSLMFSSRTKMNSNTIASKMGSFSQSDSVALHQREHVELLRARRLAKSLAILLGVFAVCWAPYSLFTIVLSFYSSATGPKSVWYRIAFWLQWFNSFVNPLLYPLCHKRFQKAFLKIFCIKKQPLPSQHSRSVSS
Method: as §1, §2

[8] = target: T7, M5 acetylcholine GPCR (Homo sapiens, UniProt P08912); assay: Radioligand binding assay, M5 receptor (transfected CHO cells); conditions: antagonist 1 μM
T7 construct: host or cells: CHO cells
T7 sequence (P08912 whole entry): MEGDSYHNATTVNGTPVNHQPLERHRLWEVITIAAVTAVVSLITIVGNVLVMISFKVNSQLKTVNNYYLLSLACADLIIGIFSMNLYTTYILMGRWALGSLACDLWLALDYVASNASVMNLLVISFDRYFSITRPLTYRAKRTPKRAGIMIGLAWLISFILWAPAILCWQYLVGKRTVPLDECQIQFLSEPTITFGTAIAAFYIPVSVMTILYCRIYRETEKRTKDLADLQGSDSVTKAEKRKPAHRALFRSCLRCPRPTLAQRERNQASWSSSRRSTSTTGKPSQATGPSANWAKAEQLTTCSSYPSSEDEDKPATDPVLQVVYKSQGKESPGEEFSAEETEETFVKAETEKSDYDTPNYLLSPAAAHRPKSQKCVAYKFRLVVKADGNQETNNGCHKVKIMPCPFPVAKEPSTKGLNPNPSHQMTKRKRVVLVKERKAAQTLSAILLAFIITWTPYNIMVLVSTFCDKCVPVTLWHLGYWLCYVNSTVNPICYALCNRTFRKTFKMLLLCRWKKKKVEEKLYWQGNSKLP
Method: as §1, §2

[9] = In vitro microsomal stability assay, mouse; assay type: in vitro ADME; conditions: pH 7.4; mouse liver microsomes, 1 μM compound, 37°C; read-out: Half-life (min) Mean (N = 2)
Method: as §3, with “time. […]” for “time.”

[10] = test system: GluA2-lacking AMPARs; design: method as in Magazanik et al., 1997; Buldakova et al., 1999; conditions: ref Magazanik et al., 1997; Buldakova et al., 1999; read-out: IC50 on cells expressing GluA2-lacking AMPARs; cited from earlier work

T1 sequence (P30542 whole entry): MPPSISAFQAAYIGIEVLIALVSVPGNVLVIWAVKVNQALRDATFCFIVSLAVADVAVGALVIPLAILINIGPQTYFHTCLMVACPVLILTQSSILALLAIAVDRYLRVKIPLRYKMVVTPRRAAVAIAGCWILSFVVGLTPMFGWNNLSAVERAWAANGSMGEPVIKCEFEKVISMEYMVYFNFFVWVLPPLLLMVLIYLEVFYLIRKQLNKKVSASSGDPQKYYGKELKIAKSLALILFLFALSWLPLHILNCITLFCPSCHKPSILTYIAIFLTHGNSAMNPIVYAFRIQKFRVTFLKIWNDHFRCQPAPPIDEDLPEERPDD

SMILES | Mean% inhibition (N = 2) of radioligand binding [1] [%] | Mean% inhibition (N = 2) of radioligand binding [2] [%] | Mean% inhibition (N = 2) of radioligand binding [3] [%] | inhibition at 1 μM [4] [%] | Mean% inhibition (N = 2) of radioligand binding [5] [%] | half-life [6] [h] | Mean% inhibition (N = 2) of radioligand binding [7] [%] | Mean% inhibition (N = 2) of radioligand binding [8] [%] | half-life at 1 μM [9] [min] | IC50 [10] [nM]
NCCCCCNC1(c2ccccc2)CCCCC1 [IEM-1925] | <1 | <1 | <1 | < 1 | <5 | > 5 | <5 | <5 | > 300 | 
C[N+](C)(C)CCCCCNCC12CC3CC(CC(C3)C1)C2 [IEM-1460] | <1 | <1 | <1 | < 5 | <1 | > 5 | <1 | 5.2 | > 300 | 1000 to 3000

Source: paper PMC8287724, “Reducing Auditory Nerve Excitability by Acute Antagonism of Ca^2+-Permeable AMPA Receptors” (Frontiers in Synaptic Neuroscience, 2021)
